Patent US20260199555A1, “3D PRINTING OF HIGH CELL DENSITY VASCULARIZED TISSUE” (priority 2022, published 2026)

Assays:
[1] = test system: human umbilical vein endothelial cells (HUVEC); assay: CCK8 metabolic activity of printed thin slabs, HUVEC in GelMA; type: cell-based; details: 35% vs 0% IDX; 5% GelMA, 2 million/mL HUVEC; 7 days culture; n=6, p>0.1
Excerpt: (§1) In order to verify IDX's biocompatibility with various biomaterials and cell types, we performed thin slab bioprinting using three commonly used formulas: human umbilical vein endothelial cells (HUVEC) in GelMA, human Schwann cells (HSC) in glycidyl methacrylate hyaluronic acid (GMHA), and C2C12 in alginate methacrylate (AlgMA). FIGS. 7A and 7B are plots of the refractive indices of these common bioinks at various biopolymer and IDX concentrations, respectively. Since the ideal IDX concentration range varies between 20% and 35%, we chose to compare 3D printed tissues in which 0% or 35% IDX was used. As will be apparent to those of skill in the art, other bioinks may be used including, but not limited to, multi-arm PEG (polyethylene glycol), Gel-NB (Gelatin-norbornene), Gel-SH (Gelatin-thiol), and combinations thereof, including HA-NB, HA-SH, etc. Furthermore, the sample cell types described herein are not intended to be limiting but were selected to evaluate the process's impact on viability of mammalian cells. Applications of the inventive approach go well beyond mammalian tissue/organ fabrication. […]
(§2) Cell viability in the printed thin slabs was quantified with Cell Counting Kit-8 (CCK-8, K1018, ApexBio). […] After incubation, 200 μL supernatant was collected from each sample and their OD at 450nm was measured with Tecan Infinite 200 pro.

[2] = test system: human Schwann cells (HSC); assay: CCK8 metabolic activity of printed thin slabs, HSC in GMHA; type: cell-based; details: 35% vs 0% IDX; 2.5% GMHA, 0.5% GelMA, 10 million/mL HSC; 7 days culture; n=6, p>0.1
Excerpt: as §1, §2

[3] = test system: C2C12; assay: CCK8 metabolic activity of printed thin slabs, C2C12 in AlgMA; type: cell-based; details: 35% vs 0% IDX; 1% AlgMA, 0.25% GelMA, 10 million/mL C2C12; 7 days culture; n=6, p>0.1
Excerpt: as §1, §2

[4] = test system: HUVEC; assay: Live/Dead staining of printed HUVEC thin slabs; type: cell-based; details: HUVEC in GelMA thin slabs
Excerpt: (§3) The bioink used in HUVEC viability experiment (FIGS. 3A, 3D) consists of 5% GelMA, 0.6% LAP, 2 million/mL HUVEC cells, 0% or 35% IDX, and PBS as solvent. The bioink used in HSC viability experiment (FIG. 3B) consists of 2.5% GMHA, 0.5% GelMA, 0.6% LAP, 10 million/mL HSC cells, 0% or 35% IDX, and PBS as solvent. The bioink used in C2C12 viability experiment (FIG. 3C) consists of 1% AlgMA, 0.25% GelMA, 0.6% LAP, 10 million/mL C2C12 cells, 0% or 35% IDX, and PBS as solvent. The bioink used in HUVEC RNAseq experiment (FIG. 3G) consists of 5% GelMA, 0.6% LAP, 10 million/mL HUVEC cells, 0% or 35% IDX, and PBS as solvent.
(§4) In addition, live/dead staining was also used to characterize cell viability. HUVEC in GelMA bioink is printed as thin slabs with either 0% or 35% IDX. […] Furthermore, the cytoskeleton of HUVECs was stained using phalloidin to visualize the cells' morphology.
The cell viability was also evaluated with Live/Dead staining. At designated time points, the slabs were washed with DPBS twice, incubated with 2 μM Calcein AM (C3099, Invitrogen) and 3 μM propidium iodide (P3566, Invitrogen) in the fresh culture media at their regular incubation condition for 30 min. After incubation, the slabs were washed with DPBS twice and imaged with Leica DMI6000B fluorescence microscope. The live cell percentage was counted using particle analysis tool in ImageJ.

[5] = test system: HUVEC; assay: Phalloidin cytoskeleton staining of printed HUVEC slabs; type: cell-based, human; details: 0% vs 35% IDX, day 7
Excerpt: as §4

[6] = test system: HUVEC; assay: RNA-seq of HUVECs in 3D-printed GelMA hydrogel (DESeq2, GSEA); type: cell-based, human
Excerpt: as §3
This is especially important for vasculature-on-a-chip studies, where the metabolism and immune-regulation of the endothelium is of interest. […] Here, RNA-sequencing (RNA-seq) was performed to comprehensively investigate the potential changes caused by IDX exposure in the HUVECs in 3D-printed GelMA hydrogel.
Differential expression was first investigated with DESEQ2. […] To further evaluate the biological impact that IDX brought to the bioprinted vasculature, Gene Set Enrichment Analysis (GSEA) using the Molecular Signature Database (MSigDB) was used. […] The heme metabolism is believed to be a result of the oxidative stress induced by the IDX, and the enrichment in the complement system is potentially related to inflammatory responses. These findings correlate well with the clinically observed adverse effects and previous toxicological studies of IDX.
HUVECs were 3D printed in 250 μm slabs using GelMA bioink with 0% or 35% IDX. After 7 days of culture, the RNAs from the 3D printed slabs are extracted with TRIzol reagent (15596018, Ambion) followed by purification using spin column method with Direct-zol RNA Microprep (R2060, Zymo Research). The RNA quality evaluation and sequencing was performed by Novogen Inc. The sequencing data was analyzed with FastQC, trimmed with Trimmomatic, aligned with HISAT2, annotated with StringTie. Differential gene expression was analyzed with DESeq2. Gene set enrichment analysis was performed with GSEA_4.2.3 (Broad Institute). Network analysis was performed with Cytoscape 3.9.1 using the EnrichmentMap application.

[7] = Refractive index measurement at 405 nm; type: physicochemical
Experimental: Tests verified that IDX can effectively tune the refractive index by measuring the refractive index of bioinks comprising 5% GelMA and various concentrations of IDX at the working wavelength of the bioprinter (405 nm). For refractive index measurement, mixtures of 5% GelMA with 0%, 20%, 25%, 30%, or 35% IDX, and PBS as solvent were prepared. […] The refractive indices of bioinks comprising 5% GelMA and 0% IDX, as well as the as-purchased IDX solution (OptiPrep™, Sigma-Aldrich) which contains 60% IDX, are also plotted for reference.
The refractive index of bioink can be measured using a simple refractometer with a 405 nm laser. […] The converging beam enters the prism-sample interface at different angles, and total internal reflection (TIR) happens at some of these angles. The diverging beam exits the prism, is collimated by a lens, and collected by a camera. […] In order to accurately relate the TIR boundary position on the captured image to the actual reflecting angle, water and isopropanol, whose refractive index and thus TIR critical angles are known, were used to calibrate this relation.

[8] = Scattering properties of cell-laden bioink (Monte-Carlo with particle swarm optimization); type: physicochemical
Experimental: The scattering effect of the material is usually characterized by scattering coefficient, anisotropy, and reduced scattering coefficient. To further verify that a proper concentration of IDX can effectively reduce the bioinks' scattering effect, bioinks comprising 5% GelMA, 40 million/mL 293T cells, and various IDX concentrations (0%, 20%, 25%, 30%, or 35%) were prepared. An approach that combined Monte-Carlo simulation and particle swarm optimization algorithm was used to determine the bioink's scattering properties at the working wavelength of the bioprinter (405 nm). […] The bioink without refractive index tuning has a scattering coefficient of 11.76 mm^−1, and a reduced scattering coefficient of 0.164 mm^−1. […] By carefully tuning the concentration of contrast agent, scattering can potentially be further reduced.
We used a well-developed 3D Monte-Carlo method combined with a particle swarm optimization algorithm (57) to numerically calculate the scattering properties of the cell-laden bioinks. The total transmittance and total reflectance at 405 nm of the 1 mm thick bioink containing 40 million/mL cells were measured using a UV-Vis-NIR spectroscope (Perkin Elmer, Lambda 1050) with integrating sphere. The angular intensity distribution of the scattered light at 405 nm was measured with a simple optical goniometer type setup. Given arbitrary optical properties, the total transmittance, total reflectance, and angular distribution can be calculated by the Monte-Carlo method. We then used a particle swarm optimization algorithm on MATLAB (MathWorks, Natick MA) to acquire the optical properties which best fit the measured total transmittance, total reflectance, and angular distribution. FIG. 2E provides sample line graphs showing that the simulated angular distribution of the scattered light well fits the measurement values. Next, we used the acquired scattering coefficient and anisotropy to simulate the spatial distribution of light inside the bioink with Monte-Carlo method. This spatial distribution is also the point spread function of scattering.

[9] = Brix refractometer measurement of 5% GelMA bioink with contrast agents; type: physicochemical; details: 5% GelMA bioink, 0, 20, 30, 40, 50% w/v contrast agent
Experimental: FIGS. 14A and 14B plot the results of measurement using a Brix refractometer of 5% GelMA bioink with various concentrations (0, 20, 30, 40, 50% w/v) of the contrast agents ioversol and iohexol, respectively. For comparison, a 100% (w/v) sample of each contrast agent was also measured. Since this method measures the number of dissolved solids in a liquid based on its specific gravity, the units are in Brix %. FIGS. 14C and 14D show the Brix % data converted to refractive index.

[10] = 35% vs 0% IDX, 7 days after bioprinting, |log2FoldChange|>0.5849, p<0.05
[11] = bioink 5% GelMA, 40 million/mL 293T cells, 30% IDX, 405 nm

Compound: CC(=O)N(CC(O)CN(C(C)=O)c1c(I)c(C(=O)NCC(O)CO)c(I)c(C(=O)NCC(O)CO)c1I)c1c(I)c(C(=O)NCC(O)CO)c(I)c(C(=O)NCC(O)CO)c1I (centres unmarked) [IDX, iodixanol]
- effect on cells' metabolic activity (CCK8) compared to controls [1]: no statistically significant effect
- effect on cells' metabolic activity (CCK8) compared to controls [2]: no statistically significant effect
- effect on cells' metabolic activity (CCK8) compared to controls [3]: no statistically significant effect
- cell viability (live cell percentage) ([4]; 0% or 35% IDX, Day 1, Day 3, Day 7): greater than 90%
- difference in cell viability between 0% and 35% IDX ([4]; n=4, p>0.1 for all pairs): No statistically significant difference
- cell morphology / endothelialization [5]: no qualitative differences observed
- genes downregulated [6, 10]: 569 genes
- genes significantly upregulated [6, 10]: 587 genes
- principal component analysis clustering of samples ([6]; 35% vs 0% IDX, n=3): did not cluster into two groups
- curated collection gene sets downregulated ([6]; response to IDX exposure): 11 gene sets
- curated collection gene sets upregulated ([6]; response to IDX exposure): 3 gene sets
- ontology collection gene sets downregulated ([6]; response to IDX exposure): 1 gene set
- ontology collection gene sets upregulated ([6]; response to IDX exposure): 18 gene sets
- hallmark gene sets significantly enriched (GSEA) ([6]; samples printed with IDX bioink, FDR<25%, p<0.05): xenobiotic metabolism, heme metabolism, and complement gene sets
- refractive index of the bioink versus IDX concentration ([7]; 5% GelMA, IDX 20% to 35%, 405 nm): linearly increases
- refractive index ([7]; IDX solution): greater than 1.4
- reduction of scattering ([8]; 30% IDX vs bioink without refractive index tuning): approximately 10 fold
- reduced scattering coefficient [8, 11]: 0.014 mm^−1
- scattering coefficient [8, 11]: 1.377 mm^−1

Compound: O=C(NCC(O)CO)c1c(I)c(C(=O)NCC(O)CO)c(I)c(N(CCO)C(=O)CO)c1I (centres unmarked) [ioversol]
- tuning of bioink refractive index [9]: can effectively tune its refractive index
